Measured values: US20100311714A1, “1H-IMIDAZO[4,5-c]QUINOLINONE COMPOUNDS” (priority 2009, published 2010)

Columns and labels:
[1] = system: PKB Ser473 phosphorylation in Rat1-myr-HA-p110 delta cells; test: Reverse protein array, PKB Ser473 phosphorylation in Rat1-myr-HA-p110 delta cells; type: cell-based; details: Rattus norvegicus, 0.5 h, 30 minutes compound incubation, read-out: p-PKB/IC50_delta
[2] = system: PKB Ser473 phosphorylation in Rat1-myr-HA-p110 alpha cells; test: Reverse protein array, PKB Ser473 phosphorylation in Rat1-myr-HA-p110 alpha cells; type: cell-based; details: Rattus norvegicus, 0.5 h, 30 minutes compound incubation, read-out: p-PKB/IC50_alpha

Question: How did the IC50 [1] turn out when `COC1CCN(c2ccc(-n3c(=O)n(C)c4cnc5ccc(-c6cncc(C(C)(C)O)c6)cc5c43)c(C)n2)C1` (stereo not drawn) [Example 28.1, 8-[5-(1-Hydroxy-1-methyl-ethyl)-pyridin-3-yl]-1-[6-(3-methoxy-pyrrolidin-1-yl)-2-methyl-pyridin-3-yl]-3-methyl-1,3-dihydro-imidazo[4,5-c]quinolin-2-one] was run?
Answer: 0.0399 µM

Question: And the IC50 [2]?
Answer: 0.0227 µM

Question: How did the IC50 [1] turn out when `Cc1cccnc1-n1c(=O)n(C)c2cnc3ccc(-c4ccc(C(N)=O)cc4)cc3c21` [Example 3.3, 4-[3-Methyl-1-(3-methyl-pyridin-2-yl)-2-oxo-2,3-dihydro-1H-imidazo[4,5-c]quinolin-8-yl]-benzamide] was run?
Answer: 0.62 µM

Question: And the IC50 [2]?
Answer: 0.178 µM

Question: With `CCOc1cc(-c2ccc3ncc4c(c3c2)n(-c2ccc(N3CCCC3)nc2C)c(=O)n4C)cnc1COC` [Example 25.2, 8-(5-Ethoxy-6-methoxymethyl-pyridin-3-yl)-3-methyl-1-(2-methyl-6-pyrrolidin-1-yl-pyridin-3-yl)-1,3-dihydro-imidazo[4,5-c]quinolin-2-one] as the molecule, how does the IC50 [1] read?
Answer: 0.124 µM

Question: And the IC50 [2]?
Answer: 0.048 µM

Question: How did the IC50 [1] turn out when `CNc1cc(-c2ccc3ncc4c(c3c2)n(-c2cccnc2C)c(=O)n4C)cnc1C` [Example 2.32, 3-Methyl-8-(6-methyl-5-methylamino-pyridin-3-yl)-1-(2-methyl-pyridin-3-yl)-1,3-dihydro-imidazo[4,5-c]quinolin-2-one] was run?
Answer: 0.0337 µM

Question: And the IC50 [2]?
Answer: < 0.00457 µM

Question: `Cc1nc(F)ccc1-n1c(=O)n(C)c2cnc3ccc(-c4cnc5c(ccn5C)c4)cc3c21` [Example 7.2, 1-(6-Fluoro-2-methyl-pyridin-3-yl)-3-methyl-8-(1-methyl-1H-pyrrolo[2,3-b]pyridin-5-yl)-1,3-dihydro-imidazo[4,5-c]quinolin-2-one] was tested. Which IC50 [1] did it give?
Answer: 0.0697 µM

Question: And the IC50 [2]?
Answer: 0.0121 µM

Question: What does the source list for `Cc1ncccc1-n1c(=O)n(C)c2cnc3ccc(-c4cncc(N)c4)cc3c21` [Example 2.25, 8-(5-Amino-pyridin-3-yl)-3-methyl-1-(2-methyl-pyridin-3-yl)-1,3-dihydro-imidazo[4,5-c]quinolin-2-one]?
Answer: IC50 [1]: 0.11 µM; IC50 [2]: 0.0363 µM

Question: How did the IC50 [1] turn out when `Cc1ncccc1-n1c(=O)n(C)c2cnc3ccc(-c4cncc(NC(C)C)c4)cc3c21` [Example 2.24, 8-(5-Isopropylamino-pyridin-3-yl)-3-methyl-1-(2-methyl-pyridin-3-yl)-1,3-dihydro-imidazo[4,5-c]quinolin-2-one] was run?
Answer: 0.0289 µM

Question: What about the IC50 [2] of the same molecule?
Answer: 0.0222 µM

Question: `Cc1ccncc1-n1c(=O)n(C)c2cnc3ccc(-c4ccc(CO)nc4)cc3c21` [Example 4.1, 8-(6-Hydroxymethyl-pyridin-3-yl)-3-methyl-1-(4-methyl-pyridin-3-yl)-1,3-dihydro-imidazo[4,5-c]quinolin-2-one] was tested. Which IC50 [2] did it give?
Answer: 0.542 µM

Question: What does the source list for `CCOc1cc(-c2ccc3ncc4c(c3c2)n(-c2ccc(OCCOC)nc2C)c(=O)n4C)cnc1COC` [Example 22.1, 8-(5-Ethoxy-6-methoxymethyl-pyridin-3-yl)-1-[6-(2-methoxy-ethoxy)-2-methyl-pyridin-3-yl]-3-methyl-1,3-dihydro-imidazo[4,5-c]quinolin-2-one]?
Answer: IC50 [1]: 0.207 µM; IC50 [2]: 0.0177 µM

Question: What does the source list for `CNc1ncc(-c2ccc3ncc4c(c3c2)n(-c2ccc(N3CC[C@H](O)C3)nc2C)c(=O)n4C)cn1` [Example 32.1, 1-[6-((S)-3-Hydroxy-pyrrolidin-1-yl)-2-methyl-pyridin-3-yl]-3-methyl-8-(2-methylamino-pyrimidin-5-yl)-1,3-dihydro-imidazo[4,5-c]quinolin-2-one]?
Answer: IC50 [1]: 0.0177 µM; IC50 [2]: < 0.00457 µM

Question: Which IC50 [1] does the source give for `Cc1nc(N2CCCC2)ccc1-n1c(=O)n(C)c2cnc3ccc(-c4cncc(C(C)(C)O)c4)cc3c21` [Example 25.3, 8-[5-(1-Hydroxy-1-methyl-ethyl)-pyridin-3-yl]-3-methyl-1-(2-methyl-6-pyrrolidin-1-yl-pyridin-3-yl)-1,3-dihydro-imidazo[4,5-c]quinolin-2-one] here?
Answer: 0.0254 µM

Question: What about the IC50 [2] of the same molecule?
Answer: 0.0139 µM

Question: Which IC50 [1] does the source give for `CNc1ncc(-c2ccc3ncc4c(c3c2)n(-c2ccc(N3CC(O)C3)nc2C)c(=O)n4C)cc1F` [Example 29.3, 8-(5-Fluoro-6-methylamino-pyridin-3-yl)-1-[6-(3-hydroxy-azetidin-1-yl)-2-methyl-pyridin-3-yl]-3-methyl-1,3-dihydro-imidazo[4,5-c]quinolin-2-one] here?
Answer: 0.0653 µM

Question: And the IC50 [2]?
Answer: 0.0219 µM

Question: `Cc1ncccc1-n1c(=O)n(C)c2cnc3ccc(-c4ccc(C(N)=O)cc4)cc3c21` [Example 2.3, 4-[3-Methyl-1-(2-methyl-pyridin-3-yl)-2-oxo-2,3-dihydro-1H-imidazo[4,5-c]quinolin-8-yl]-benzamide] was tested. Which IC50 [1] did it give?
Answer: 0.0236 µM

Question: What about the IC50 [2] of the same molecule?
Answer: 0.021 µM

Question: With `COc1ccc(-c2ccc3ncc4c(c3c2)n(-c2cccnc2C)c(=O)n4C)cc1OC` [Example 2.9, 8-(3,4-Dimethoxy-phenyl)-3-methyl-1-(2-methyl-pyridin-3-yl)-1,3-dihydro-imidazo[4,5-c]quinolin-2-one] as the molecule, how does the IC50 [1] read?
Answer: 0.0341 µM

Question: And the IC50 [2]?
Answer: 0.0084 µM

Question: Which results are given for `COc1ncccc1-n1c(=O)n(C)c2cnc3ccc(-c4cnc5[nH]ccc5c4)cc3c21` [Example 1.2, 1-(2-Methoxy-pyridin-3-yl)-3-methyl-8-(1H-pyrrolo[2,3-b]pyridin-5-yl)-1,3-dihydro-imidazo[4,5-c]quinolin-2-one]?
Answer: IC50 [1]: 0.00801 µM; IC50 [2]: 0.0057 µM

Question: With `Cc1cccnc1-n1c(=O)n(C)c2cnc3ccc(-c4ccc(N(C)C)nc4)cc3c21` [Example 3.11, 8-(6-Dimethylamino-pyridin-3-yl)-3-methyl-1-(3-methyl-pyridin-2-yl)-1,3-dihydro-imidazo[4,5-c]quinolin-2-one] as the molecule, how does the IC50 [2] read?
Answer: 0.372 µM

Question: Which IC50 [1] does the source give for `COCc1ncc(-c2ccc3ncc4c(c3c2)n(-c2ccc(N3CCC3)nc2C)c(=O)n4C)cc1OC` [Example 23.6, 1-(6-Azetidin-1-yl-2-methyl-pyridin-3-yl)-8-(5-methoxy-6-methoxymethyl-pyridin-3-yl)-3-methyl-1,3-dihydro-imidazo[4,5-c]quinolin-2-one] here?
Answer: 0.216 µM

Question: What about the IC50 [2] of the same molecule?
Answer: 0.0371 µM

Question: With `Cc1ncccc1-n1c(=O)n(C)c2cnc3ccc(-c4cnc(N(C)C)nc4)cc3c21` [Example 2.15, 8-(2-Dimethylamino-pyrimidin-5-yl)-3-methyl-1-(2-methyl-pyridin-3-yl)-1,3-dihydro-imidazo[4,5-c]quinolin-2-one] as the molecule, how does the IC50 [1] read?
Answer: 0.102 µM

Question: And the IC50 [2]?
Answer: 0.0724 µM

Question: What does the source list for `CNc1ccc(-c2ccc3ncc4c(c3c2)n(-c2ccc(F)nc2C)c(=O)n4C)cn1` [Example 7.4, 1-(6-Fluoro-2-methyl-pyridin-3-yl)-3-methyl-8-(6-methylamino-pyridin-3-yl)-1,3-dihydro-imidazo[4,5-c]quinolin-2-one]?
Answer: IC50 [1]: 0.0193 µM; IC50 [2]: 0.00718 µM

Question: What does the source list for `CNC(=O)c1ccc(-c2ccc3ncc4c(c3c2)n(-c2ncccc2C)c(=O)n4C)cc1` [Example 3.5, N-Methyl-4-[3-methyl-1-(3-methyl-pyridin-2-yl)-2-oxo-2,3-dihydro-1H-imidazo[4,5-c]quinolin-8-yl]-benzamide]?
Answer: IC50 [1]: 0.458 µM; IC50 [2]: 0.0927 µM

Question: How did the IC50 [1] turn out when `COc1ncc(-c2ccc3ncc4c(c3c2)n(-c2ccc(N3CC(O)C3)nc2C)c(=O)n4C)c(OC)n1` [Example 29.6, 8-(2,4-Dimethoxy-pyrimidin-5-yl)-1-[6-(3-hydroxy-azetidin-1-yl)-2-methyl-pyridin-3-yl]-3-methyl-1,3-dihydro-imidazo[4,5-c]quinolin-2-one] was run?
Answer: 0.119 µM

Question: And the IC50 [2]?
Answer: 0.017 µM

Question: Which results are given for `Cc1ncccc1-n1c(=O)n(C)c2cnc3ccc(-c4ccc(N)nc4)cc3c21` [Example 2.7, 8-(6-Amino-pyridin-3-yl)-3-methyl-1-(2-methyl-pyridin-3-yl)-1,3-dihydro-imidazo[4,5-c]quinolin-2-one]?
Answer: IC50 [1]: 0.0122 µM; IC50 [2]: 0.0116 µM

Question: For `CCNc1cc(-c2ccc3ncc4c(c3c2)n(-c2ccc(N3CCC3)nc2C)c(=O)n4C)cnc1CO` [Example 23.8, 1-(6-Azetidin-1-yl-2-methyl-pyridin-3-yl)-8-(5-ethylamino-6-hydroxymethyl-pyridin-3-yl)-3-methyl-1,3-dihydro-imidazo[4,5-c]quinolin-2-one], which IC50 [1] is on record?
Answer: 0.0102 µM

Question: And the IC50 [2]?
Answer: 0.0073 µM

Question: How did the IC50 [1] turn out when `CCOc1cc(-c2ccc3ncc4c(c3c2)n(-c2ccc(N3CCC3)nc2C)c(=O)n4C)cnc1COC` [Example 23.5, 1-(6-Azetidin-1-yl-2-methyl-pyridin-3-yl)-8-(5-ethoxy-6-methoxymethyl-pyridin-3-yl)-3-methyl-1,3-dihydro-imidazo[4,5-c]quinolin-2-one] was run?
Answer: 0.155 µM

Question: And the IC50 [2]?
Answer: 0.0373 µM

Question: Which IC50 [2] does the source give for `CCOc1ccc(-c2ccc3ncc4c(c3c2)n(-c2cnccc2C)c(=O)n4C)cn1` [Example 4.2, 8-(6-Ethoxy-pyridin-3-yl)-3-methyl-1-(4-methyl-pyridin-3-yl)-1,3-dihydro-imidazo[4,5-c]quinolin-2-one] here?
Answer: 0.0473 µM

Question: With `Cc1ncccc1-n1c(=O)n(C)c2cnc3ccc(-c4cncc(N5CCC5)c4)cc3c21` [Example 2.29, 8-(5-Azetidin-1-yl-pyridin-3-yl)-3-methyl-1-(2-methyl-pyridin-3-yl)-1,3-dihydro-imidazo[4,5-c]quinolin-2-one] as the molecule, how does the IC50 [1] read?
Answer: 0.122 µM

Question: What about the IC50 [2] of the same molecule?
Answer: 0.0087 µM

Question: For `Cc1ncccc1-n1c(=O)n(C)c2cnc3ccc(-c4cnc(N)c(C(F)(F)F)c4)cc3c21` [Example 2.11, 8-(6-Amino-5-trifluoromethyl-pyridin-3-yl)-3-methyl-1-(2-methyl-pyridin-3-yl)-1,3-dihydro-imidazo[4,5-c]quinolin-2-one], which IC50 [1] is on record?
Answer: 0.0209 µM

Question: What about the IC50 [2] of the same molecule?
Answer: 0.00702 µM

Question: Which IC50 [2] does the source give for `CCOc1ncc(-c2ccc3ncc4c(c3c2)n(-c2ncccc2C)c(=O)n4C)cn1` [Example 3.1, 8-(2-Ethoxy-pyrimidin-5-yl)-3-methyl-1-(3-methyl-pyridin-2-yl)-1,3-dihydro-imidazo[4,5-c]quinolin-2-one] here?
Answer: 0.632 µM

Question: Which IC50 [2] does the source give for `Cc1cccnc1-n1c(=O)n(C)c2cnc3ccc(-c4ccc(CO)nc4)cc3c21` [Example 3.9, 8-(6-Hydroxymethyl-pyridin-3-yl)-3-methyl-1-(3-methyl-pyridin-2-yl)-1,3-dihydro-imidazo[4,5-c]quinolin-2-one] here?
Answer: 0.301 µM

Question: How did the IC50 [2] turn out when `CCOc1ccc(-c2ccc3ncc4c(c3c2)n(-c2ncccc2C)c(=O)n4C)cn1` [Example 3.6, 8-(6-Ethoxy-pyridin-3-yl)-3-methyl-1-(3-methyl-pyridin-2-yl)-1,3-dihydro-imidazo[4,5-c]quinolin-2-one] was run?
Answer: 0.15 µM
